“Also recorded” adds a separate entry of the source.
How the values were obtained:
Format in all cases: in vivo
[1] = system: STZ-induced diabetic mice; test: Oral glucose tolerance test (OGTT); set-up: reduction of AUC compared with the STZ group / extent of reduction of AUC compared with the STZ group: concentration or dose not given beside the values; conditions: propolins study; for AUC value for blood glucose (integral area) / extent of reduction of AUC compared with the STZ group: OGTT
Method: (§1) The male FBV mice of 5 weeks old, commercially available from BioLASCO Co., Ilan, Taiwan, were acclimatized for 1 week, prior to administration of streptozotocin (STZ) at 40 mg/kg for 3 consecutive days. STZ was formulated with an aqueous solution of sodium citrate (pH 4.5, 73.5 mg/5 mL) on ice, and then 100 μL of the formulation was dosed by intraperitoneal injection. From day 2 in the 3 consecutive days, the mice were dosed with 5% (w/v) glucose water for 6 consecutive days. After allowing the mice to rest for 10 days, blood glucose levels were measured. After administration of STZ for 1 week, about 5 μL of blood was collected from each of the mice at the tail vein, and was assayed for blood glucose by a blood glucose monitor and chip (FORA, California, U.S.A.). After 1 week, blood glucose was detected once more, and whether blood glucose was smooth or not was evaluated prior to grouping. The values of blood glucose in all of the mice induced to suffer from diabetes were brought to fall within about 300±50 mg/dL.
After administration of the testing substance to the animals for 12 weeks, the OGTT test was performed for evaluation of secretion and effects of insulin. All of the mice in the test were administered with the testing substance and then fasted for 4 hours prior to blood sampling at the first point called point 0. Afterwards, the mice were fed by oral gavage with 200 μL glucose in water, equivalent to a dose of 1.0 g/kg. After administration, blood was collected for an assay of blood glucose at 15, 30, 60, 120 and 180 minutes, respectively. Therefore, a total of 6 points, including points at 0, 15, 30, 60, 120 and 180 minutes, were obtained. About 5 μL of blood was collected from each of the mice at the tail vein and was then assayed for blood glucose by the blood glucose monitor and chip (FORA, California, U.S.A.). The blood glucose values at the Y-axis were plotted against the time points at the X-axis. Each group was calculated for an area under curve for comparison. The efficacy in regulation of blood glucose was evaluated by the area showing a relationship between the testing substance and secretion and effects of insulin.

[2] = system: STZ-induced diabetic mice; test: Blood glucose in the STZ-induced diabetic mice; conditions: propolins study; for modulation of blood glucose: 8 weeks, dose 1.2-2.4% of the Januvia dose
Method: as §1, with “mg/dL. […]” for “mg/dL.”
(§2) An appropriate amount of propolins and its relevant derivatives, such as PPA, PPB, PPC, PPD, PPE, PPF, PPG, PPH, PPI or PPJ, was dissolved with 3 ml 95% alcohol and then uniformly mixed with 80 μL Tween 80; after concentrating under reduced pressure for removal of alcohol, it was uniformly dispersed into 16 ml water to give a liquid mixture of propolins. This mixture was fed by 200 μL gavage into the diabetic mice designated as the propolins and its relevant derivative group.
(§3) Sitagliptin (trade name: Januvia), commercially available from American Merck Co., was used as the DPP4 inhibitor. An appropriate amount of sitagliptin was dissolved in water to provide a final concentration allowing administration of the mice at a dose of 370 mg/kg. In the following example, Januvia was representative of the DPP4 inhibitors and acted as a positive control group for reference.
(§4) Tween 80 (80 μL) was mixed into 16 ml water to give a placebo, which was fed by 200 μL gavage into the STZ-induced diabetic mice or normal mice (i.e., the mice without induction for diabetes). Oral gavage was carried out once at a fixed time each day, and weight, feedstuff intake and water intake were measured weekly until tests were finished at 12-13 weeks.

[3] = system: STZ-induced diabetic mice; test: Water intake of the diabetic mice; conditions: propolins study
Method: as §1
(§5) An appropriate amount of the Taiwan Green Propolis alcohol extract was dissolved with 3 ml 95% alcohol and then uniformly mixed with 80 μL Tween 80 as a cosolvent; after concentrating under reduced pressure for removal of alcohol, it was dispersed into 16 ml water to give a liquid mixture of the Taiwan Green Propolis extract. This mixture was fed by 200 μL gavage into the diabetic mice designated as the Taiwan Green Propolis extract group.
as §2, §3, §4

[4] = system: STZ-induced diabetic mice; test: Feedstuff intake of the diabetic mice; conditions: propolins study
Method: as §1, §5, §2, §3, §4

[5] = 0 point, PPC 9.0, PPD 6.75, PPF 4.5, PPG 4.5, DPP4I 370 mg/kg/mouse
[6] = 30-minute time point after glucose in water
[7] = after administration for 8 weeks by gavage daily, PPC 9.0, PPD 6.75, PPF 4.5, PPG 4.5, Januvia 370 mg/kg/mouse

Structure (SMILES)	value of blood glucose in glucose tolerance test [1, 5]	value of blood glucose in glucose tolerance test [1, 6]	value of blood glucose in glucose tolerance test ([1]; 120-minute time point)	value of blood glucose in glucose tolerance test ([1]; 180-minute time point) [mg/dL]	AUC value for blood glucose (integral area) [1]	extent of reduction of AUC compared with the STZ group [1] [%]	efficacy in glucose tolerance test ([1]; compared to the STZ group)	modulation of blood glucose [2]	blood glucose [2, 7] [mg/dL]	blood glucose ([2]; at 0 week) [mg/dL]	water intake ([3]; at 1 week) [mL/mouse]	water intake ([3]; at 6 weeks) [mL/mouse]	water intake ([3]; at 8 weeks) [mL/mouse]	effect on feedstuff intake [4]	feedstuff intake ([4]; at 1 week) [g/mouse]	feedstuff intake ([4]; at 6 weeks) [g/mouse]	feedstuff intake ([4]; at 8 weeks) [g/mouse]	effect on water intake [3]
CC(C)=CCC/C(C)=C/Cc1c([C@@H]2CC(=O)c3c(cc(O)c(CC=C(C)C)c3O)O2)ccc(O)c1O [PPG, (S,E)-2-(2-(3,7-dimethylocta-2,6-dien-1-yl)-3,4-dihydroxyphenyl)-5,7-dihydroxy-6-(3-methylbut-2-en-1-yl)-3,4-dihydro-2H-1-benzopyran-4-one]	about 385 mg/dL	about 525 mg/dL	about 380 mg/dL	350	about 7.8×10^4	31.7	more excellent efficacy	higher activity for modulation of blood glucose than DPP4I; also recorded: the most effective compound for modulating blood glucose	298	330	6.5	9.0	9.0	significantly inhibited feedstuff intake	4.8	7.0	7.2	–
CC(C)=CCC/C(C)=C/Cc1c([C@@H]2CC(=O)c3c(O)cc(O)cc3O2)ccc(O)c1O [PPD, (S,E)-2-(2-(3,7-dimethylocta-2,6-dien-1-yl)-3,4-dihydroxyphenyl)-5,7-dihydroxy-3,4-dihydro-2H-1-benzopyran-4-one]	about 380 mg/dL	about 530 mg/dL	about 490 mg/dL	460	about 8.7×10^4	16.2	–	highly effectively modulated	400	330	8.0	14.0	16.0	significantly inhibited feedstuff intake	7.2	7.2	7.2	significantly inhibited water intake
CC(C)=CCC/C(C)=C/Cc1cc([C@@H]2CC(=O)c3c(O)cc(O)cc3O2)cc(O)c1O [PPF, (S,E)-2-(3-(3,7-dimethylocta-2,6-dien-1-yl)-4,5-dihydroxyphenyl)-5,7-dihydroxy-3,4-dihydro-2H-1-benzopyran-4-one]	about 390 mg/dL	about 525 mg/dL	about 420 mg/dL	430	about 8.2×10^4	15.0	–	effectively highly modulated	398	330	8.0	13.0	10.0	significantly inhibited feedstuff intake	6.3	7.0	6.3	–
CC(C)=CCC/C(C)=C/Cc1c(O)cc2c(c1O)C(=O)C[C@@H](c1ccc(O)c(O)c1)O2 [PPC, (S,E)-2-(3,4-dihydroxyphenyl)-6-(3,7-dimethylocta-2,6-dien-1-yl)-5,7-dihydroxy-3,4-dihydro-2H-1-benzopyran-4-one]	about 350 mg/dL	about 450 mg/dL	about 430 mg/dL	400	about 8.0×10^4	28.2	–	highly effectively modulated	298	330	8.2	16.0	24.0	significantly inhibited feedstuff intake	7.2	8.0	7.9	significantly inhibited water intake

— patent US9457007B2, “Prenylflavanone compounds for modulating diabetes” (NATUREWISE BIOTECH & MEDICALS CORPORATION, priority 2013, dated 2016)
